IC50 data for 40 compounds are collected here from US10532985B2, “Heterocycle and carbocycle derivatives having TRKA inhibitory activity” (Shionogi & Co., Ltd., priority 2014, dated 2020).

pIC50: −log10 of the molar value. Where only a bound is given, the exact number is not on record here.

The target in the first experiment is T1, human TrkA (Homo sapiens, UniProt P04629).
T1 construct: purchased Lifetechnologies PV3144
T1 sequence (P04629 33-796): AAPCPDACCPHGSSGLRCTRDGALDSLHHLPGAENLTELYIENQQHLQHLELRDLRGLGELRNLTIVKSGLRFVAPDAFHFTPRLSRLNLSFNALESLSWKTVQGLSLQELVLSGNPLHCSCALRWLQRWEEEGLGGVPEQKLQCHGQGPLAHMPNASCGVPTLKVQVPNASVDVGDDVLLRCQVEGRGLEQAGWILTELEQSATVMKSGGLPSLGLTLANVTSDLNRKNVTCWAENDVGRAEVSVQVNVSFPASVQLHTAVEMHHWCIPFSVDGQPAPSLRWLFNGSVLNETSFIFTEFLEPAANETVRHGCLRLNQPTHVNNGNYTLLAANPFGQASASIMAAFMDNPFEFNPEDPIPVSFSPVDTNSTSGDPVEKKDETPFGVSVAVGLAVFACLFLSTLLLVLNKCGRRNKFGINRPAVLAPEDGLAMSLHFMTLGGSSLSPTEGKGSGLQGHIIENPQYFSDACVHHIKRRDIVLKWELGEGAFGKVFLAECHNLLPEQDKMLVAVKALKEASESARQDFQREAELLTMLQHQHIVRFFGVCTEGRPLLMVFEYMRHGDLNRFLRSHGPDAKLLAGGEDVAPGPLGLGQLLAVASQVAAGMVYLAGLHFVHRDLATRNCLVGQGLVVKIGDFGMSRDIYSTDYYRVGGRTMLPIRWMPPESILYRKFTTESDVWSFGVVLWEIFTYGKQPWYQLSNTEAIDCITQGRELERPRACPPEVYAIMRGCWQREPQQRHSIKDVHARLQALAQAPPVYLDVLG
The experiment in a line: Test Example 2: Human TrkA Inhibition Assay. The note with it: human TrkA inhibition, Test Example 2; class symbols A/B/C; read-out: IC50_nM. The format is biochemical. The essentials:
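Mobility-shift kinase assay: 90 min reaction at room temperature, stopped with EDTA buffer; phosphorylated and non-phosphorylated fluorescent substrate measured, conversion ratio calculated. Inhibition % normalised between DMSO-only wells and no-TrkA wells.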
As to `Cc1c(-c2cnn(C)c2)nn(-c2ccccc2)c1NC(=O)N[C@@H]1CC2(CC(O)C2)C[C@H]1c1ccccc1` (mixture of isomers) [Compound I-172], the pIC50 is less than 6.00.

In the case of `Cc1c(-c2cnn(C)c2)nn(-c2ccccc2)c1NC(=O)N[C@@H]1C[N+](C)(C)C[C@H]1c1ccc(F)c(F)c1` [Compound I-25], the pIC50 was less than 6.00.

Regarding `Cc1c(-c2cnn(C)c2)nn(-c2ccccc2)c1NC(=O)N[C@@H]1CN(CC2CCCCO2)C[C@H]1c1ccc(F)c(F)c1` (stereo partly shown) [Compound I-43], the pIC50 is less than 6.00.

With `Cc1c(-c2cnn(C)c2)nn(-c2ccccc2)c1NC(=O)NC1CCCCC1Cc1ccc(Cl)cc1` (stereo not shown) [Compound I-14], the pIC50 is less than 6.00.

Turning to `COCCN1C[C@@H](NC(=O)Nc2c(C)c(-c3cnn(C)c3)nn2-c2ccccc2)[C@H](c2cccc(-c3cncnc3)c2)C1` (racemic) [Compound I-59], the pIC50 is less than 6.00.

As to `COCCN1C[C@@H](NC(=O)Nc2c(C)c(-c3cnn(C)c3)nn2-c2ccccc2)[C@H](c2cccc(C(=O)OC)c2)C1` (racemic) [Compound I-19], the pIC50 was less than 6.00.

Turning to `COCCN1C[C@@H](NC(=O)Nc2c(C)c(-c3cnn(C)c3)nn2-c2ccccc2)[C@H](c2cccc(-c3cn[nH]c3)c2)C1` (racemic) [Compound I-175], the pIC50 is less than 6.00.

`COCC[C@H]1C[C@@H](NC(=O)Nc2c(C)c(-c3cnn(C)c3)nn2-c2ccccc2)[C@H](c2ccccc2)C1` [Compound I-95]: the pIC50 was greater than 7.00.

Another experiment addresses T1, human TrkA. The experiment in a line: Test Example 2-2: Human TrkA Inhibition Assay. The format is biochemical. The note with it: class symbols, read-out: IC50_nM. The procedure: Seven point five μL per well of human TrkA (PV3144, Lifetechnologies, final concentration: 1 nmol/L) suspended in the assay buffer (100 mmol/L 4-(2-hydroxyethyl)-1-piperazineethanesulfonic acid (HEPES), 10 mmol/L magnesium chloride, 0.003 vol % Brij-35, 0.004 vol % Tween20 and 1 mmol/L dithiothreitol (DTT)) was applied in a 384 well plate and the plate was pre-incubated for 15 min at room temperature with 0.4 μL of each compound (final concentration: […]) dissolved in DMSO. Then, fluorescent substrate (FL-peptide 27, 760424, PerkinElmer, final concentration: 1.5 μmol/L) and ATP (final concentration […]) dissolved in the assay buffer was added in each well. After the incubation of 120 min at 37° C., fifteen μL of termination buffer (100 mmol/L HEPES, 40 mmol/L ethylenediaminetetraacetic acid (EDTA), 10 mmol/L magnesium chloride, 0.003 vol % Brij-35, 0.004 vol % Tween20, 1 mmol/L DTT and 0.16 vol % Coating Reagent 3) was added in each well to stop the enzyme reaction. Fluorescent intensities (FI) of phosphorylated and non-phosphorylated fluorescent substrates were measured by LabChip EZReader II (Caliper LifeSciences, Inc.), and conversion ratio (CR) was calculated by the following formula-1. The CR in the well applied with DMSO alone was used as a negative control and the CR in the well without applying TrkA was used as a positive control. The inhibitory effect of each compound on TrkA phosphorylation was calculated by the following formula-2. CR (%)=(FI of phosphorylated substrate/(FI of phosphorylated substrate+FI of non-phosphorylated substrate))×100 (Formula-1) Phosphorylation inhibition (%)=(1−(CR with compound treatment−CR of positive control)/(CR of negative control−CR of positive control))×100 (Formula-2) Inhibitory effect on TrkA phosphorylation (%)=(1−(CR in compound treated well−CR in positive control)/(CR in negative control−CR in positive control))×100.
The 50/o inhibitory concentration (IC50) was determined by the logistic regression using the inhibition data in 10 points at a range of 2 μmol/L to 0.1 nmol/L or 200 μmol/L to 10 nmol/L).
For the compound `COCC[C@@H]1C[C@@H](NC(=O)Nc2c(C)c(C3=CCN(C(=O)OC)CC3)nn2-c2ccccc2)[C@H](c2ccccc2)C1` [Compound I-268], the pIC50 was greater than 7.00.

For the compound `COCCN1C[C@@H](NC(=O)Nc2c(C)c(-c3cnn(C)c3)nn2-c2ccccc2)[C@H](c2ccc3c(c2)COC3)C1` (racemic) [Compound I-274], the pIC50 is 6.00 to 7.00.

Regarding `COCC[C@@H]1C[C@@H](NC(=O)Nc2c(C)c(OCC3CCN(C)CC3)nn2-c2ccccc2)[C@H](c2ccccc2)C1` [Compound I-272], the pIC50 was greater than 7.00.

The same experiment, now with this note: human TrkA 1 nmol/L, 120 min at 37° C., read-out: TrkA inhibition IC50.
Turning to `CC(=O)CN1C[C@@H](NC(=O)Nc2c(C)c(-c3cnn(C)c3)nn2-c2ccccc2)[C@H](c2ccc(F)c(F)c2)C1` [Compound I-185], the pIC50 was 5.82.

Regarding `COCCC1C[C@@H](NC(=O)Nc2c3c(nn2-c2ccccc2)CCC3)[C@H](c2ccccc2)C1` (stereo partly shown) [Compound I-184], the pIC50 is 7.33.

Take `COCC[C@@H]1C[C@@H](NC(=O)Nc2c(C)c(-c3cnn(C)c3)nn2-c2ccccc2)[C@H](c2ccccc2)[C@H]1C` [Compound I-241]: the pIC50 is 9.05.

Take `Cc1c(-c2cnn(C)c2)nn(-c2ccccc2)c1NC(=O)N[C@@H]1CN(CCOC2CC2)C[C@H]1c1ccnc(F)c1` (racemic) [Compound I-267]: the pIC50 is 7.62.

The experiment is the same for the next values; noted with them: human TrkA inhibition, class symbols A/B/C, read-out: IC50_nM.
Consider `COCCC1C[C@@H](NC(=O)Nc2c(C)c(-c3cnn(C)c3)nn2-c2ccccc2)[C@H](c2ccc(F)c(F)c2)C1` (stereo partly shown) [Compound I-187], for which the pIC50 was greater than 7.00.

Consider `COCCN1C[C@@H](NC(=O)Nc2c(C)c(-c3cnn(C)c3)nn2-c2ccccc2)[C@H](c2cccc(C=O)c2)C1` (racemic) [Compound I-230], for which the pIC50 is 6.00 to 7.00.

Take `COCCN1C[C@@H](NC(=O)Nc2c(C)c(-c3cnn(C)c3)nn2-c2ccccc2)[C@H](c2ccnc(C3=NC(=O)CS3)c2)C1` (racemic) [Compound I-195]: the pIC50 was less than 6.00.

Take `COCCC1C[C@@H](NC(=O)Nc2cc(-c3cnc(C)nc3)nn2C)[C@H](c2ccccc2)C1` (stereo partly shown) [Compound I-219]: the pIC50 was less than 6.00.

For `COCCC1C[C@@H](NC(=O)Nc2c(C)c(-c3cnn(C)c3)nn2-c2ccccc2)[C@H](c2ccc(F)c(F)c2)N1CCOC` (stereo partly shown) [Compound I-197], the pIC50 was less than 6.00.

`Cc1c(-c2cnn(C)c2)nn(-c2ccccc2)c1NC(=O)N[C@@H]1CN(Cc2ccc(CO)o2)C[C@H]1c1ccc(F)c(F)c1` [Compound I-191]: the pIC50 was 6.00 to 7.00.

Consider `COCCC1C[C@@H](NC(=O)Nc2c(C)c(-c3ccc(C(=O)OC(C)(C)C)cc3)nn2-c2ccccc2)[C@H](c2ccccc2)C1` (stereo partly shown) [Compound I-206], for which the pIC50 was greater than 7.00.

Regarding `CCOC(=O)C(COC)[C@@H]1C[C@@H](NC(=O)Nc2c(C)c(-c3cnn(C)c3)nn2-c2ccccc2)[C@H](c2ccccc2)C1` (mixture of isomers) [Compound I-238], the pIC50 is less than 6.00.

For `COCC[C@@H]1C[C@@H](NC(=O)Nc2c(C)c(-c3ccc(C(=O)O)cc3)nn2-c2ccccc2)[C@H](c2ccc(F)c(F)c2)N1C` [Compound I-237], the pIC50 was greater than 7.00.

As for `COCC[C@@H]1C[C@@H](NC(=O)Nc2c(C)c(-c3ccc(OC)nc3)nn2-c2ccccc2)[C@H](c2ccc(F)c(F)c2)N1` [Compound I-257], the pIC50 was greater than 7.00.

On to `COCCC1C[C@@H](NC(=O)Nc2cc(-c3ccc(C)nc3)nn2C)[C@H](c2ccccc2)C1` (stereo partly shown) [Compound I-220], for which the pIC50 was 6.00 to 7.00.

On to `COCC(C(=O)OC)[C@@H]1C[C@@H](NC(=O)Nc2c(C)c(-c3cnn(C)c3)nn2-c2ccccc2)[C@H](c2ccccc2)C1` (mixture of isomers) [Compound I-244], for which the pIC50 was 6.00 to 7.00.

For `COCCN1C[C@@H](NC(=O)Nc2c(C)c(-c3cnn(C)c3)nn2-c2ccccc2)[C@H](c2ccc3occc3c2)C1` (racemic) [Compound I-232], the pIC50 was 6.00 to 7.00.

Take `COCCC1C[C@@H](NC(=O)Nc2c(C)c(-c3cnn(C)c3)nn2-c2ccccc2)[C@H](c2ccc(O)cc2)C1` (stereo partly shown) [Compound I-222]: the pIC50 was greater than 7.00.

`COCC=C1C[C@@H](NC(=O)Nc2c(C)c(-c3cnn(C)c3)nn2-c2ccccc2)[C@H](c2ccccc2)C1` [Compound I-261]: the pIC50 was greater than 7.00.

`COCCC1C[C@@H](NC(=O)Nc2c(C)c(OCC(C)(C)O)nn2-c2ccccc2)[C@H](c2ccccc2)C1` (relative stereo) [Compound I-182]: the pIC50 is 6.00 to 7.00.

On to `COCCN1C[C@@H](NC(=O)Nc2c(C)c(-c3cnn(C)c3)nn2-c2ccccc2)[C@H](c2ccc(F)c(F)c2)C1` [Compound I-250], for which the pIC50 is greater than 7.00.

As for `COCCC1C[C@@H](NC(=O)Nc2c(C)c(-c3cnn(C)c3)nn2-c2ccccc2)[C@H](c2ccc(F)c(F)c2)N1Cc1ccccc1` (stereo partly shown) [Compound I-196], the pIC50 was less than 6.00.

`COCCC1C[C@@H](NC(=O)Nc2c(C)c(-c3ccnc(C)c3)nn2-c2ccccc2)[C@H](c2ccccc2)C1` (stereo partly shown) [Compound I-234]: the pIC50 is greater than 7.00.

Regarding `COCCC1C[C@@H](NC(=O)Nc2c(C)c(-c3ccc(C(=O)O)cc3)nn2-c2ccccc2)[C@H](c2ccccc2)C1` (stereo partly shown) [Compound I-207], the pIC50 is greater than 7.00.

Take `COCCC1C[C@H](NC(=O)Nc2c(C)c(-c3cnn(C)c3)nn2-c2ccccc2)[C@@H](c2ccccc2)C1` (stereo partly shown) [Compound I-213]: the pIC50 is 6.00 to 7.00.

With `CNC(=O)c1ccc(-c2cc(NC(=O)N[C@@H]3CC(CCOC)C[C@H]3c3ccccc3)n(C)n2)cc1` (stereo partly shown) [Compound I-200], the pIC50 was less than 6.00.

In the case of `COCCN1C[C@@H](NC(=O)Nc2c(C)c(-c3cnn(C)c3)nn2-c2ccccc2)[C@H](c2ccccc2)[C@H]1CF` [Compound I-251], the pIC50 was 6.00 to 7.00.

Consider `CO[C@@H]1C[C@H](NC(=O)Nc2c(C)c(-c3cnn(C)c3)nn2-c2ccccc2)[C@@H](c2ccccc2)C1` (racemic) [Compound I-233], for which the pIC50 was less than 6.00.

In the case of `Cc1c(-c2cnn(C)c2)nn(-c2ccccc2)c1NC(=O)N[C@@H]1CN(Cc2cc(Br)co2)C[C@H]1c1ccc(F)c(F)c1` [Compound I-189], the pIC50 was greater than 7.00.
